Read-outs that look alike come from different tables or passages of the source.

In assay [1] the test system is IL-23 stimulated Kit225 T cells (STAT-dependent luciferase reporter). Briefly: Kit225 T cell assay, IL-23-stimulated STAT-dependent luciferase reporter. The assay is classed as cell-based, human. The note with it: 20 ng/mL human recombinant IL-23, 5-6 hours, read-out: IL-23 Kit225 Reporter (IC50). As to the method:
(§1) Kit225 T cells with a stably-integrated STAT-dependent luciferase reporter were plated in RPMI (Gibco) containing 10% heat-inactivated FBS (Gibco) and 100 U/mL PenStrep (Gibco). The cells were then stimulated with either 20 ng/mL human recombinant IL-23 or 200 U/mL human recombinant IFNα (PBL InterferonSource) for 5-6 hours. Luciferase expression was measured using the STEADY-GLO® Luciferase Assay System (Promega) according to the manufacturer's instructions. Inhibition data were calculated by comparison to no inhibitor control wells for 0% inhibition and non-stimulated control wells for 100% inhibition.

In assay [2] the test system is IFNα stimulated Kit225 T cells (STAT-dependent luciferase reporter). Briefly: Kit225 T cell assay, IFNα-stimulated STAT-dependent luciferase reporter. The assay is classed as cell-based, human. The conditions noted are these: 200 U/mL human recombinant IFNα, 5-6 hours, read-out: IFNα Kit225 Reporter (IC50). As to the method: as §1
(A reporter such as luciferase makes a cellular process visible.)

The term IC50 denotes the point on the concentration scale where inhibition reaches its midpoint. On to `[2H]C([2H])([2H])NC(=O)c1nnc(Nc2cc(C)c(F)cn2)cc1Nc1ccccc1S(C)(=O)=O` [Example 1], for which the IC50 turned out to be 30 nM in assay [1] (KIT225) and 20 nM in assay [2] (KIT225).

For `CS(=O)(=O)c1ccccc1Nc1cc(Nc2ccc(F)cn2)nnc1C(N)=O` [Example 2], the IC50 in assay [1] worked out at 140 nM; in assay [2] it was 50 nM. The like results for `CNC(=O)c1nnc(Nc2ccc(F)cn2)cc1Nc1ccccc1S(C)(=O)=O` [Example 3] were, in that order, 100 nM and 60 nM. For `CNC(=O)c1nnc(Nc2ccc(F)cn2)cc1Nc1ccccc1S(C)(=O)=O` [Example 6], in that order: 190 nM and 110 nM.

In the case of `CNC(=O)c1nnc(Nc2cc(C)nc(C)n2)cc1Nc1ccccc1S(C)(=O)=O` [Example 7], the IC50 in assay [1] came to 70 nM; in assay [2], 50 nM. The like results for `CNC(=O)c1nnc(Nc2cc(C)ncn2)cc1Nc1ccccc1S(C)(=O)=O` [Example 8] were, in that order, 130 nM and 90 nM.

On to `CNC(=O)c1nnc(Nc2cc(F)ccn2)cc1Nc1ccccc1S(C)(=O)=O` [Example 9], for which the IC50 in assay [1] is 60 nM; in assay [2], 90 nM. On to `CNC(=O)c1nnc(Nc2cc(C#N)ccn2)cc1Nc1ccccc1S(C)(=O)=O` [Example 11], for which the IC50 amounted to 100 nM in assay [1] and 60 nM in assay [2].

For the molecule `CNC(=O)c1nnc(NC(=O)C2CC2)cc1Nc1ccccc1S(C)(=O)=O` [Example 12], the IC50 in assay [1] is 230 nM; in assay [2], 100 nM. The like results for `CNC(=O)c1nnc(Nc2cc3ccccc3cn2)cc1Nc1ccccc1S(C)(=O)=O` [Example 13] were, in that order, 20 nM and 50 nM. The like results for `CNC(=O)c1nnc(Nc2cc(C)ccn2)cc1Nc1ccccc1S(C)(=O)=O` [Example 14] were, in that order, 10 nM and 10 nM. For `CNC(=O)c1nnc(Nc2cc(C)c(F)cn2)cc1Nc1ccccc1S(C)(=O)=O` [Example 15], in that order: 40 nM and 50 nM. Take `CNC(=O)c1nnc(NC(=O)C2CC2)cc1Nc1ccccc1S(C)(=O)=O` [Example 17]: the IC50 in assay [1] is 570 nM; in assay [2], 360 nM. Regarding `Cc1cc(Nc2cc(Nc3ccccc3S(C)(=O)=O)c(C(N)=O)nn2)ncc1F` [Example 18], the IC50 was determined as 100 nM in assay [1] and 30 nM in assay [2]. The like results for `CNC(=O)c1nnc(Nc2ccc(C)nn2)cc1Nc1ccccc1S(C)(=O)=O` [Example 19] were, in that order, 90 nM and 90 nM. For `CNC(=O)c1nnc(Nc2cc(C)c(C)cn2)cc1Nc1ccccc1S(C)(=O)=O` [Example 20], in that order: 20 nM and 20 nM. For `CNC(=O)c1nnc(Nc2cc(C)c(C)nn2)cc1Nc1ccccc1S(C)(=O)=O` [Example 21], in that order: 80 nM and 60 nM. For the molecule `CNC(=O)c1nnc(Nc2ccc(OC)cn2)cc1Nc1ccccc1S(C)(=O)=O` [Example 22], the IC50 came to 160 nM in assay [1] and 100 nM in assay [2]. The like results for `CNC(=O)c1nnc(Nc2cc(C)ccn2)cc1Nc1ccccc1S(C)(=O)=O` [Example 23] were, in that order, 100 nM and 40 nM. The like results for `CNC(=O)c1nnc(Nc2cc(C)n(C)n2)cc1Nc1ccccc1S(C)(=O)=O` [Example 24] were, in that order, 60 nM and 50 nM. Turning to `CNC(=O)c1nnc(Nc2cc(C#N)ccn2)cc1Nc1ccccc1S(C)(=O)=O` [Example 25], the IC50 in assay [1] was 140 nM; in assay [2], 80 nM. Regarding `CNC(=O)c1nnc(Nc2cc(C)c(C#N)cn2)cc1Nc1ccccc1S(C)(=O)=O` [Example 26], the figures for the IC50 in assay [1] and in assay [2] were 60 nM and 50 nM, respectively. For `CS(=O)(=O)c1ccccc1Nc1cc(Nc2ccccn2)nnc1C(N)=O` [Example 27], in that order: 10 nM and 20 nM. For `CNC(=O)c1nnc(NC(=O)C2CC2F)cc1Nc1ccccc1S(C)(=O)=O` (centres unmarked) [Example 28], in that order: 420 nM and 610 nM.

Turning to `CNC(=O)c1nnc(Nc2ccc(N3CCOCC3)cn2)cc1Nc1ccccc1S(C)(=O)=O` [Example 29], the figures for the IC50 in assay [1] and in assay [2] were 140 nM and 80 nM, respectively. The like results for `CNC(=O)c1nnc(Nc2cccc(C)n2)cc1Nc1ccccc1S(C)(=O)=O` [Example 30] were, in that order, 20 nM and 10 nM.

As to `CNC(=O)c1nnc(Nc2ccccn2)cc1Nc1ccccc1S(C)(=O)=O` [Example 31], the figures for the half-maximal inhibitory concentration (IC50) in assay [1] and in assay [2] were 80 nM and 90 nM, respectively. The like results for `CNC(=O)c1nnc(Nc2ccc(C(=O)OC)cn2)cc1Nc1ccccc1S(C)(=O)=O` [Example 32] were, in that order, 70 nM and 50 nM.

In the case of `CNC(=O)c1nnc(Nc2cc(C(C)=O)ccn2)cc1Nc1ccccc1S(C)(=O)=O` [Example 33], the IC50 in assay [1] came to 660 nM; in assay [2], 400 nM. For the molecule `CNC(=O)c1nnc(Nc2cc(CO)ccn2)cc1Nc1ccccc1S(C)(=O)=O` [Example 34], the results for the 50% inhibitory concentration (IC50) in assay [1] and in assay [2] were 190 nM and 170 nM, respectively. `CNC(=O)c1nnc(Nc2cc(C(F)(F)F)ccn2)cc1Nc1ccccc1S(C)(=O)=O` [Example 35]: the IC50 in assay [1] was 210 nM; in assay [2] it was 40 nM. `CCc1ccnc(Nc2cc(Nc3ccccc3S(C)(=O)=O)c(C(=O)NC)nn2)c1` [Example 36]: the figures for the IC50 in assay [1] and in assay [2] were 110 nM and 30 nM, respectively. Consider `CCOc1ccnc(Nc2cc(Nc3ccccc3S(C)(=O)=O)c(C(=O)NC)nn2)c1` [Example 37], for which the IC50 in assay [1] turned out to be 540 nM; in assay [2], 80 nM. For `CNC(=O)c1nnc(Nc2cc(OC)ccn2)cc1Nc1ccccc1S(C)(=O)=O` [Example 38], in that order: 170 nM and 100 nM. As to `CNC(=O)c1nnc(Nc2ccnc(C)n2)cc1Nc1ccccc1S(C)(=O)=O` [Example 39], the IC50 turned out to be 340 nM in assay [1] and 130 nM in assay [2]. The like results for `CNC(=O)c1nnc(Nc2cc(COC)nc(C)n2)cc1Nc1ccccc1S(C)(=O)=O` [Example 40] were, in that order, 80 nM and 120 nM. For `CNC(=O)c1nnc(Nc2cc(C)nc(COC)n2)cc1Nc1ccccc1S(C)(=O)=O` [Example 41], in that order: 160 nM and 190 nM. The like results for `CNC(=O)c1nnc(Nc2cc(OC)ncn2)cc1Nc1ccccc1S(C)(=O)=O` [Example 42] were, in that order, 150 nM and 260 nM.

As for `CNC(=O)c1nnc(Nc2cc(OC)nc(C)n2)cc1Nc1ccccc1S(C)(=O)=O` [Example 43], the values for the IC50 in assay [1] and in assay [2] were 460 nM and 70 nM, respectively. The like results for `CNC(=O)c1nnc(Nc2cc(OC(C)C)nc(C)n2)cc1Nc1ccccc1S(C)(=O)=O` [Example 44] were, in that order, 250 nM and 100 nM. The like results for `CNC(=O)c1nnc(Nc2cc(OC(C)C)ncn2)cc1Nc1ccccc1S(C)(=O)=O` [Example 45] were, in that order, 420 nM and 310 nM. The like results for `CCc1cc(Nc2cc(Nc3ccccc3S(C)(=O)=O)c(C(=O)NC)nn2)ncn1` [Example 46] were, in that order, 200 nM and 60 nM. For `CCc1cc(Nc2cc(Nc3ccccc3S(C)(=O)=O)c(C(=O)NC)nn2)nc(C)n1` [Example 47], the IC50 in assay [1] was 50 nM; in assay [2], 20 nM. The like results for `CNC(=O)c1nnc(Nc2cc(C(C)O)ccn2)cc1Nc1ccccc1S(C)(=O)=O` (centres unmarked) [Example 48] were, in that order, 330 nM and 110 nM. The like results for `CNC(=O)c1nnc(Nc2ccc(CO)cn2)cc1Nc1ccccc1S(C)(=O)=O` [Example 49] were, in that order, 560 nM and 220 nM. On to `CNC(=O)c1nnc(Nc2cc(C(C)(C)O)ccn2)cc1Nc1ccccc1S(C)(=O)=O` [Example 50], for which the IC50 in assay [1] is 310 nM; in assay [2] it was 490 nM.

For the molecule `CNC(=O)c1nnc(NC(=O)C2CC2)cc1Nc1cccc(-c2ncn(C)n2)c1OC` [Example 52], the IC50 in assay [1] was 10 nM; in assay [2], 9.21 nM. The like results for `CNC(=O)c1nnc(NC(=O)C2CC2)cc1Nc1cccc(-c2ccn(C)n2)c1OC` [Example 54] were, in that order, 40 nM and 20 nM.

For the molecule `CNC(=O)c1nnc(NC(=O)C2CC2)cc1Nc1cccc(-c2ncccn2)c1OC` [Example 70], in assay [1], the IC50 was determined as 20 nM. Same read-out and setting: the result for `CNC(=O)c1nnc(NC(=O)C2CC2)cc1Nc1cccc(-c2ccccn2)c1OC` [Example 72] reads 130 nM; that for `CNC(=O)c1nnc(NC(=O)C2CC2)cc1Nc1cccc(-c2cnccn2)c1OC` [Example 75], 70 nM; that for `CNC(=O)c1nnc(NC(=O)C2CC2)cc1Nc1cccc(-c2cccnn2)c1OC` [Example 78], 320 nM. The same measure, in the same setting: the result for `CNC(=O)c1nnc(NC(=O)C2CC2)cc1Nc1cccc(-c2nccc(C)n2)c1OC` [Example 82] reads 110 nM. On the same count and under the same terms, the result for `CNC(=O)c1nnc(NC(=O)C2CC2)cc1Nc1cccc(-c2ccncn2)c1OC` [Example 86] reads 30 nM. `CNC(=O)c1nnc(Nc2cc(C)n(C)n2)cc1Nc1cccc(-c2ncc(C)s2)c1OC` [Example 104]: the IC50 in assay [2] was found to be 40 nM. With `CNC(=O)c1nnc(NC(=O)C2CC2)cc1Nc1cccc(-c2cnn(CC(F)F)c2)c1OC` [Example 187], the IC50 in assay [1] was determined as 50 nM.

The values are drawn from US11021475B2, “Amide-substituted heterocyclic compounds useful as modulators of IL-12, IL-23 and/or IFN alpha responses” (Bristol-Myers Squibb Company, priority 2012, dated 2021).
